Each structure is given as a SMILES string.

One may read the melting point as the temperature of the solid-liquid transition. In turn, `N#Cc1ccccc1NC(=O)c1snc(Cl)c1Cl` displayed a melting point of 191 to 193 °C.

Compound `CC(C)CC1(CCCCN2CCN(c3ccccn3)CC2)C(=O)Nc2ccccc21` (stereo not given) returned a melting point of 158 to 159 °C.

`CNC(=O)C(C)(C)N(OC(C)(C)C#N)C(C)(C)C` showed a melting point of 96 to 101 °C.

`CCCc1c2c(cc3c1OC(O)(C(=O)OCC)CC3=O)CCCC2` (stereo not given) yielded a melting point of 126 to 128 °C.

`COc1ccc(C(=O)Nc2c(F)cccc2F)cc1OC1CCCC1` came in with a melting point of 158 to 160 °C.

On to `OCCCc1oc(-n2cncn2)nc1-c1ccc(Cl)cc1`, for which the melting point fell in the range of 139 to 140 °C.

`CC(C#CC1CC(Oc2ccc(F)cc2)C1)N(O)C(N)=O` (stereo not given) came in with a melting point of 125 to 127 °C.

`CCOC(=O)C1C(C)=NC(N2CCCC2)=C(C(=O)OC(C)C)C1c1ccccc1C(F)(F)F` (stereo not given): the melting point was found to be 102 °C.

In the case of `COc1ccc(CN2C(=O)c3c(-c4ccccc4Cl)cc4[nH]c5ccc(OC)cc5c4c3C2=O)c(OC)c1`, the melting point was 224 to 226 °C.

As for `Cc1cc2c(C(C)(C)C)c(O)ccc2o1`, the melting point amounted to 49.9 °C.

For the compound `COc1ccc(N2CCN(Cc3coc4c(OC)cccc34)CC2)cc1`, the melting point is 126 to 127 °C.

`O=S(=O)(Nc1cccc(I)c1)C(F)(F)F`: the melting point was in the range of 75 to 77 °C.

`COC(=O)N(COc1ccc(Cl)cc1Cl)c1ccc(Cl)cc1`: the melting point fell in the range of 70 to 80 °C.

For the compound `CCOC(=O)C(=NOC)C1=CSCCS1`, the melting point lay within 65 to 67 °C.

On to `CNc1nc(N)nc(-c2cc(Cl)ccc2Cl)n1`, for which the melting point fell in the range of 205 to 206 °C.

For `O=C(O)CC(=O)Nc1cc2ccccc2cc1C(=O)O`, the melting point lay in the range of 225 to 227 °C.

`N#Cc1cc(-c2ccccc2F)[nH]c1Cl` had a melting point of 218 to 220 °C.

Consider `O=C1OC(CN2CCC(O)(c3ccc(F)cc3)CC2)CN1c1ccc(F)cc1` (stereo not given), for which the melting point lay within 145 to 147 °C.

The compound `O=C(NCC12CC3CC(CC(C3)C1)C2)c1cccc(F)c1Cl` showed a melting point of 149 to 151 °C.

`CN(CCN(C)S(=O)(=O)c1ccc(F)cc1)C(=O)c1ccc(Nc2ccnc3cc(C(F)(F)F)ccc23)cc1` displayed a melting point of 191 to 193 °C.

`CC(=O)NC[C@@H]1CCCc2cc(S(=O)(=O)c3ccccc3)cc(F)c21` yielded a melting point of 152 to 154 °C.

In turn, `COc1cccc(NC(=O)NC2N=C(C(C)C)c3ccccc3N(CC(=O)N3CC4CCC(CC4)C3)C2=O)c1` (stereo not given) had a melting point of 139 to 142 °C.

With `CN1CCN(c2cc3nc(C(C)(C)C)sc3cc2N)CC1`, the melting point was determined as 130 °C.

`CCc1ccc(S(=O)(=O)NC(C)(C)C)o1` displayed a melting point of 71 to 72 °C.

Turning to `COc1cc(OC)nc(Oc2cccnc2C=O)n1`, the melting point amounted to 76 °C.

With `COC(=O)[C@@H]1CN(C(=O)OCc2ccccc2)C[C@H]1c1ccc(OC)c(OC2CCCC2)c1` (relative stereo), the melting point amounted to 85 °C.

`CC1(C)CC(=O)Nc2cc3nc(-c4cccc(Cl)c4)[nH]c3cc21` returned a melting point of 190 to 193 °C.

Consider `Cc1cc([N+](=O)[O-])nc(C)c1C(N)=O`, for which the melting point lay within 179 to 180 °C.

As for `O=c1[nH]c2cc(Cl)ccc2n1CCCBr`, the melting point was determined as 162 °C.

As to `CCN1CCCC1CNC(=O)c1cc(S(=O)(=O)CC)cc2c1OCCO2` (stereo not given), the melting point was 111 to 122 °C.

`CC(=O)NC[C@H]1CN(c2ccc(C(=O)c3cnc4ccc(Cl)nn34)cc2)C(=O)O1` displayed a melting point of 194 to 196 °C.

The compound `CC(C)c1ccccc1-c1nc(-c2ccccc2)n[nH]1` displayed a melting point of 165 to 167 °C.

As for `C1COCCOCCOCCOCCO1`, the melting point fell in the range of 70 to 71 °C.

Compound `C=CCN(C)C(=O)Nc1cc(C(C)(C)C)on1` gave a melting point of 90 to 91 °C.

`COc1cccc(CNc2nccc(-c3cc(N4CCN(CCCN5CCCCC5)CC4)c4cc(OC)ccc4c3)n2)c1` had a melting point of 63 to 75 °C.

`CCCCCCC1CCC(C(=O)Nc2c(C(C)C)cccc2C(C)C)C(=O)O1` (stereo not given) had a melting point of 113 to 115 °C.

In the case of `Cn1cc(-c2cccc(I)c2)c(=O)c(-c2cccc(C(F)(F)F)c2)c1`, the melting point was in the range of 178 to 181 °C.

For the compound `Cc1ccccc1CNc1c2c(nc3ccccc13)CCCC2O` (stereo not given), the melting point lay in the range of 167 to 169 °C.

`CCOC(=O)c1cc(O)cc(OCC)c1` registered a melting point of 62 to 63 °C.

`COc1ccc([N+](=O)[O-])cc1C=CC1=NC(C)(C)CO1` yielded a melting point of 115 to 116 °C.

Compound `O=C(Nc1ccc(F)cc1F)Nc1oc(=O)c2ccc(Cl)cc2c1-c1ccccc1` came in with a melting point of 196 to 197 °C.

In turn, `O=C(Nc1ccc(-n2nc(C(F)(F)F)cc2C(F)(F)F)cc1)C1(O)CC1` had a melting point of 198 to 200 °C.

For `CC1=NN=C(c2ccc([N+](=O)[O-])cc2)c2cc3c(cc2C1)OCCOC3`, the melting point is 204 to 206 °C.

For the compound `Cc1csn(-c2ccc(Cl)cc2)c1=O`, the melting point lay in the range of 157 to 159 °C.

Regarding `CCCCCCNC(=O)c1ccc(N2N=C(CCC)C(=CNc3ccccc3CC)C2=O)cc1`, the melting point came to 46.7 °C.

Compound `Clc1ccc(-c2cc(-c3ccccc3)c(-c3ccccc3)s2)cc1` gave a melting point of 115 to 117 °C.

`O=C(NC(=O)c1c(F)cccc1F)Nc1ccc2c(c1)C(F)(F)OC(F)(F)O2`: the melting point was determined as 231 °C.

On to `COc1cc2nc(N)nc(-c3ccc(O)cc3)c2cc1OC`, for which the melting point fell in the range of 245 to 248 °C.

The compound `COC(=O)NC1(C)CN(C(=O)Nc2ccc(C(F)(F)F)cc2)N=C1c1ccc(Cl)cc1` (stereo not given) showed a melting point of 179 to 181 °C.

With `C=CNC(=O)C(C)(Cc1ccccc1)S(=O)(=O)CCCl` (stereo not given), the melting point lay in the range of 107 to 108 °C.

For the compound `COC(=O)C(O)C1(O)CCC2C3CCC4=CC(=O)C=CC4(C)C3C(O)CC21C` (stereo not given), the melting point was 171 to 173 °C.

`CN1C(=O)C(C(=O)Nc2cccc(F)c2)S(=O)(=O)c2ccccc21` (stereo not given) gave a melting point of 206 to 208 °C.

Consider `CC(=O)N1CCCC1n1nccc1-c1ccc(Oc2ccc(F)cc2)cc1` (stereo not given), for which the melting point lay in the range of 90 to 95 °C.

For the compound `Cc1cc(-c2nc3cc(OC(C)C)cc(OC(C)C)c3c(=O)[nH]2)cc(C)c1OCCN1CCCC1`, the melting point fell in the range of 65 to 68 °C.

Compound `CC(=O)C1CC2CCC1(COC(=O)Oc1ccccc1)CC2` (stereo not given) gave a melting point of 74 to 75 °C.

`Cc1scnc1-c1ccc(-c2cc(C(F)(F)F)nn2-c2ccc(S(C)(=O)=O)c(F)c2)cc1` gave a melting point of 170 to 172 °C.

Compound `C=CCn1cc(C(=O)O)c(=O)c2cc(F)c(N3CCN(C)CC3)cc21` registered a melting point of 208 °C.

Regarding `O=C1c2cc(Cl)ccc2CC1Br` (stereo not given), the melting point is 84 to 87 °C.

On to `CC(C)(C)OC(=O)NC1CCCCCC=CC2CC2(C(=O)NS(=O)(=O)C2CC2)NC(=O)C2CC(OC(=O)c3ccc4ccccc4c3)CN2C1=O` (stereo not given), for which the melting point lay within 156 to 158 °C.

`OC(c1ccc(F)cc1)c1cccnc1` (stereo not given): the melting point lay in the range of 45 to 47 °C.

Regarding `CCc1cc2c([nH]c1=O)C(=O)C=CC2=O`, the melting point is 168 °C.

On to `CC(=O)COc1ccc(N2N=C3c4ccccc4SCC3CC2=O)cc1` (stereo not given), for which the melting point is 177 to 180 °C.

Regarding `Nc1cc(C(=O)NC2CC2)n[nH]1`, the melting point was greater than 246 °C.

With `CCCCc1nc2c(n1Cc1ccc(-c3ccccc3S(N)(=O)=O)cc1)C(=NO)CCS2`, the melting point is greater than 200 °C.

For the compound `Cc1ccc(C(=O)c2c(N)cc(C(=O)O)cc2OCc2ccccc2)cc1`, the melting point lay within 182 to 184 °C.

For the compound `COc1cccc(CNc2nc(NC[C@@H](C)O)nc3c2ncn3C(C)C)c1O`, the melting point is 100 to 103 °C.

Turning to `NC1(C(=O)c2ccccc2)CCSC1` (stereo not given), the melting point fell in the range of 147 to 149 °C.

`Nc1c(F)c(F)c(F)c(F)c1S(=O)(=O)O` displayed a melting point of 272 to 276 °C.

`COc1c(N2CC(C)C(N)C(C)C2)c(F)cc2c(=O)c(C(=O)O)cn(C3CC3)c12` (stereo not given) displayed a melting point of 178 to 180 °C.

`FC(F)(F)c1cccc(C(Cl)=Nc2nc(C(F)(F)F)c(I)s2)c1` showed a melting point of 136 to 137 °C.

The compound `O=C(Cc1ccc2c(c1)OCO2)N[C@H]1CC[C@H](CCN2CCN(c3nccc4c3OCC4)CC2)CC1` registered a melting point of 187 °C.

Compound `COc1ccc(-c2[nH]nc3c2C(=O)c2c(NC(=O)C(C)C)cccc2-3)cc1` returned a melting point of 288 °C.

Take `O=C(CS(=O)CCNC(=O)c1ccco1)NCCCOc1cccc(CN2CCCCC2)c1` (stereo not given): the melting point was 101 to 102 °C.

For `O=c1ccc(-c2c(-c3ccccc3)nn3ccccc23)nn1C1CCN(Cc2ccccc2)CC1`, the melting point lay in the range of 184 to 185 °C.

For the compound `CC1C(=O)N(c2ccc(Oc3ccccc3)cc2)C(=S)N1Cc1ccccc1` (stereo not given), the melting point is 138 °C.

Take `CC1(C)C=Cc2c(ccc3c2OCC2(O)c4ccc(O)cc4OC32)O1` (single isomer, unassigned; (-)): the melting point is 95 to 101 °C.

`CCCc1nc(C(C)(C)O)c(C(=O)O)n1Cc1ccc(-c2ccccc2C(=O)C(=O)O)cc1`: the melting point lay in the range of 183 to 185 °C.

Compound `NC(=O)N(O)Cc1ccc(-c2ccccn2)s1` registered a melting point of 168 °C.

On to `CC(C)(C)OC(=O)N1CCC[C@H](O)[C@@H]1c1ccccc1`, for which the melting point fell in the range of 66 to 67 °C.

Consider `CCOc1ccc2[nH]c(=O)sc2c1`, for which the melting point was found to be 147 °C.

The compound `C[C@H](N)Cn1ncc2ccc3oc(C(=O)NCC4(O)CC4)cc3c21` had a melting point of 77 to 79 °C.

Compound `Cc1nn(C)c2nc(N(CC(C)C)CC3CC3)c(CN(Cc3cc(C(F)(F)F)cc(C(F)(F)F)c3)c3nnn(C)n3)cc12` had a melting point of 99 to 101 °C.

The compound `O=C1C(=O)c2c(nc3ccccn23)-c2cccc(Br)c21` showed a melting point greater than 260 °C.

Take `COc1cc(C(C)C)c2c(c1)S(=O)(=O)N(COc1cc(Cl)nn1-c1ccccc1)C2=O`: the melting point was 109 to 110 °C.

The compound `NC(=O)c1c(Br)cc(Br)c(CC(=O)O)c1Br` yielded a melting point of 245 °C.

With `O=C(C(=CO)c1ccccc1)c1ccccc1`, the melting point was 110 to 114 °C.

Regarding `O=C(C=Cc1ccc(-c2ccc(O)c(Cl)c2)cc1)NO`, the melting point lay in the range of 172 to 175 °C.

On to `CC(C)OC(=O)Nc1ccc(NC(=O)CBr)c([N+](=O)[O-])c1`, for which the melting point lay in the range of 195 to 197 °C.

In the case of `O=CN1CCN(c2nc(Cl)nc(Cl)n2)CC1`, the melting point was in the range of 163 to 165 °C.

Compound `Cc1ccnc(Sc2nc(C)c(CC(=O)O)s2)c1C(=O)O` showed a melting point of 208 to 210 °C.

The values are drawn from a melting point compilation (Tetko et al.; mined from patent text by program, amines drawn as free bases though some values may be those of a salt).
